Calls of active or inactive are those of the source.
Tests used:
[1] = target: T1, Alkaline phosphatase, tissue-nonspecific isozyme (Homo sapiens, UniProt P05186); test: potency against alkaline phosphatase TNAP – biochemical, luminescent, dose response, SAR follow-up (AID 1056)
T1 sequence (P05186 whole entry): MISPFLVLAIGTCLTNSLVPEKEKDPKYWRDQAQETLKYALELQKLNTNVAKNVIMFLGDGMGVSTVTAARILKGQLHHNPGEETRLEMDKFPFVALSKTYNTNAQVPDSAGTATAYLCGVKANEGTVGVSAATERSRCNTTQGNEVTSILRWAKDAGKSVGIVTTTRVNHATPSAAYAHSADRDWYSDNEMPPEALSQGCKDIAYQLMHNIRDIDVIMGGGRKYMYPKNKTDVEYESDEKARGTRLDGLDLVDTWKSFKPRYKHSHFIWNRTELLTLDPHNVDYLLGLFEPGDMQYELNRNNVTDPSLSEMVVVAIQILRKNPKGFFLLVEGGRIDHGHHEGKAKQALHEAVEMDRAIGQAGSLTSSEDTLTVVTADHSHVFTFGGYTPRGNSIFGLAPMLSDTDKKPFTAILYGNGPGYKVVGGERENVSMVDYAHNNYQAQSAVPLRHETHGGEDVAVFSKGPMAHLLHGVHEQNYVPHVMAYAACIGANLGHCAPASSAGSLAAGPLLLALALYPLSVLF

[2] = target: Glyceraldehyde-3-phosphate dehydrogenase (Homo sapiens, UniProt P04406)
Sequence of Glyceraldehyde-3-phosphate dehydrogenase (P04406 whole entry): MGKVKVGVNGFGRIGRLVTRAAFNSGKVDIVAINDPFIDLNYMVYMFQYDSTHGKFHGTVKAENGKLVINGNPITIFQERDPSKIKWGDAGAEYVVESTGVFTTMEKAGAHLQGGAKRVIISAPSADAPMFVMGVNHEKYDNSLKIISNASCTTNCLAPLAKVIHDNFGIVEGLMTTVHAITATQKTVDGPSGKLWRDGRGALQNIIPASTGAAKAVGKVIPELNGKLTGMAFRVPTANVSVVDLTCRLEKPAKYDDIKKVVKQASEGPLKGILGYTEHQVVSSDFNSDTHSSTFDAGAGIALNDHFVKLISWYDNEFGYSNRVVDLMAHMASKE

[3] = target: Nonstructural protein 1 (Influenza A virus, UniProt Q194T2); format: functional, Influenza A virus (A/California/07/2009(H1N1))
Sequence of Nonstructural protein 1 (Q194T2 whole entry): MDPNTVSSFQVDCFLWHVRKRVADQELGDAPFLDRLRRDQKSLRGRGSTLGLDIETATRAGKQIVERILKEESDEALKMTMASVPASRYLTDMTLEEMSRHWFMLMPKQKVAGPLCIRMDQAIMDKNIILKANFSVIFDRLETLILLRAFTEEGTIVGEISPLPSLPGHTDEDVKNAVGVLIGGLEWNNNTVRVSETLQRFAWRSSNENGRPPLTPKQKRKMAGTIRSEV

[4] = tested on: H9c2; test: cells; format: functional, cell-based; details: Rattus norvegicus, H9c2, Myocardium;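 further: confirmatory concentration-response retest of ultra-high-throughput screening hits for modulation of myocardial damage; cell death induced by hydrogen peroxide oxidative stress; compound pretreatment for 60 min then peroxide exposure for 2 h; potency is for protecting the cells against peroxide damage rather than for killing them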
[5] = target: T2, Bcl-2-like protein 10 (Homo sapiens, UniProt Q9HD36); test: Bcl-B/TR3 peptide binding disruption – biochemical, fluorescence polarization, FITC-TR3 peptide, selectivity assay for Bfl-1 inhibitor project, primary screen (AID 748);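 further: fluorescence polarization from a fluorescein-labelled TR3 peptide binding purified Bcl-B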
T2 sequence (Q9HD36 whole entry): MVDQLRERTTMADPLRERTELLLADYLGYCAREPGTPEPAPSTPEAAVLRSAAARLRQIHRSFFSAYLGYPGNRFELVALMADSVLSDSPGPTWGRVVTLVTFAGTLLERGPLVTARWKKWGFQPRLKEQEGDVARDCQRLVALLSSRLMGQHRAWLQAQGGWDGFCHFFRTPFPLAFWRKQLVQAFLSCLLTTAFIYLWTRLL

[6] = target: T3, Hexokinase HKDC1 (Homo sapiens, UniProt Q2TB90); test: inhibition of HKDC1 glucose phosphorylation – biochemical, W721R variant, dose response (AID 504729); format: functional
T3 sequence (Q2TB90 whole entry): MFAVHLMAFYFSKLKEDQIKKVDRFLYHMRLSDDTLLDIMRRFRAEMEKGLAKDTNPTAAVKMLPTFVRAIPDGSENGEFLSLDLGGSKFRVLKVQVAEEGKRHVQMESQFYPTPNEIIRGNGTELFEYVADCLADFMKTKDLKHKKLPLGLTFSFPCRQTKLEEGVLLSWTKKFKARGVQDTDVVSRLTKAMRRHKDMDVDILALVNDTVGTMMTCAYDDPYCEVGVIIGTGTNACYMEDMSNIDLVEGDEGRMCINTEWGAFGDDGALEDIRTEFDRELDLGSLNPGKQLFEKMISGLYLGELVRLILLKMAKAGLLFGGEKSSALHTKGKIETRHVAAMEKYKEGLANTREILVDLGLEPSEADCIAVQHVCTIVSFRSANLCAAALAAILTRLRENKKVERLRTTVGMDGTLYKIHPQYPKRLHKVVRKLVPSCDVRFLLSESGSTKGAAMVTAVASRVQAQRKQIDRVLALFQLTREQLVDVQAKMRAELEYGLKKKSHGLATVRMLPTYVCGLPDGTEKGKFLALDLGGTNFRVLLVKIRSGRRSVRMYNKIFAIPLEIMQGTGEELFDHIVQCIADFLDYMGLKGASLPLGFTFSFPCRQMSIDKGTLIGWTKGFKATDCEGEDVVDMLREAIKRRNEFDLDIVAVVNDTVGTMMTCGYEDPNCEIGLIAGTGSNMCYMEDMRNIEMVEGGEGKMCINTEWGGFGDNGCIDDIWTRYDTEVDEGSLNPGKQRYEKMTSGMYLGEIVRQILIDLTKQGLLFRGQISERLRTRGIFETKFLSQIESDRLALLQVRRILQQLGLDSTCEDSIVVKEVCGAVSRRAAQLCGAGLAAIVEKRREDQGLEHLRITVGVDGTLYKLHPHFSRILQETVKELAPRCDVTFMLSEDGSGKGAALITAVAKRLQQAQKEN

[7] = target: T4, RNA-binding protein pos-1 (Caenorhabditis elegans, UniProt G5EF15); test: disruptors of C. elegans POS-1 RNA interaction – biochemical, fluorescence polarization, dose response (AID 1964);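 further: purified POS-1 fused to maltose binding protein made in E. coli; potency of compounds blocking POS-1 binding to fluorescent RNA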
T4 sequence (G5EF15 whole entry): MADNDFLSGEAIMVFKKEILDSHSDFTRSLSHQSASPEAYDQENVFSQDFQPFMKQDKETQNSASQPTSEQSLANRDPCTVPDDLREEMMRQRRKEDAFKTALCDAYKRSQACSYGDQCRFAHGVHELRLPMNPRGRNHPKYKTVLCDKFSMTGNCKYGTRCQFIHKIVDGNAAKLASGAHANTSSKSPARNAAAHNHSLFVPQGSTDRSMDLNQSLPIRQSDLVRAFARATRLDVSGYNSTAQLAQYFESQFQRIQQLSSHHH

[8] = target: T5, Zinc finger protein mex-5 (Caenorhabditis elegans, UniProt Q9XUB2); test: potency of MEX-5 RNA-binding blockers – biochemical, C. elegans, fluorescence polarization, dose response (AID 1960)
T5 sequence (Q9XUB2 whole entry): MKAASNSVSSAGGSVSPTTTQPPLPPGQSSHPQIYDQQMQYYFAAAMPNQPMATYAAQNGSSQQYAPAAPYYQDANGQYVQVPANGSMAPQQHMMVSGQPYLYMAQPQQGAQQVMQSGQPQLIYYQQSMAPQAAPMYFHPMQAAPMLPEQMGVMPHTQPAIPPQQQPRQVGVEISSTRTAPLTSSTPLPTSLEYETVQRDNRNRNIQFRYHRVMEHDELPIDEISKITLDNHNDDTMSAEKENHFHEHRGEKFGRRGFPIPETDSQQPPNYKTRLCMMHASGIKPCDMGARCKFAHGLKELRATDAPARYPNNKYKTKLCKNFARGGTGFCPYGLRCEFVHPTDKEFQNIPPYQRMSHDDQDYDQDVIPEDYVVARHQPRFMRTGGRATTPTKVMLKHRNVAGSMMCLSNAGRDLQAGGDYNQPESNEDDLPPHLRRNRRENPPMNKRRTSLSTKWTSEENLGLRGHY

[9] = target: T6, Apoptotic protease-activating factor 1 (Homo sapiens, UniProt O14727); format: functional
T6 sequence (O14727 whole entry): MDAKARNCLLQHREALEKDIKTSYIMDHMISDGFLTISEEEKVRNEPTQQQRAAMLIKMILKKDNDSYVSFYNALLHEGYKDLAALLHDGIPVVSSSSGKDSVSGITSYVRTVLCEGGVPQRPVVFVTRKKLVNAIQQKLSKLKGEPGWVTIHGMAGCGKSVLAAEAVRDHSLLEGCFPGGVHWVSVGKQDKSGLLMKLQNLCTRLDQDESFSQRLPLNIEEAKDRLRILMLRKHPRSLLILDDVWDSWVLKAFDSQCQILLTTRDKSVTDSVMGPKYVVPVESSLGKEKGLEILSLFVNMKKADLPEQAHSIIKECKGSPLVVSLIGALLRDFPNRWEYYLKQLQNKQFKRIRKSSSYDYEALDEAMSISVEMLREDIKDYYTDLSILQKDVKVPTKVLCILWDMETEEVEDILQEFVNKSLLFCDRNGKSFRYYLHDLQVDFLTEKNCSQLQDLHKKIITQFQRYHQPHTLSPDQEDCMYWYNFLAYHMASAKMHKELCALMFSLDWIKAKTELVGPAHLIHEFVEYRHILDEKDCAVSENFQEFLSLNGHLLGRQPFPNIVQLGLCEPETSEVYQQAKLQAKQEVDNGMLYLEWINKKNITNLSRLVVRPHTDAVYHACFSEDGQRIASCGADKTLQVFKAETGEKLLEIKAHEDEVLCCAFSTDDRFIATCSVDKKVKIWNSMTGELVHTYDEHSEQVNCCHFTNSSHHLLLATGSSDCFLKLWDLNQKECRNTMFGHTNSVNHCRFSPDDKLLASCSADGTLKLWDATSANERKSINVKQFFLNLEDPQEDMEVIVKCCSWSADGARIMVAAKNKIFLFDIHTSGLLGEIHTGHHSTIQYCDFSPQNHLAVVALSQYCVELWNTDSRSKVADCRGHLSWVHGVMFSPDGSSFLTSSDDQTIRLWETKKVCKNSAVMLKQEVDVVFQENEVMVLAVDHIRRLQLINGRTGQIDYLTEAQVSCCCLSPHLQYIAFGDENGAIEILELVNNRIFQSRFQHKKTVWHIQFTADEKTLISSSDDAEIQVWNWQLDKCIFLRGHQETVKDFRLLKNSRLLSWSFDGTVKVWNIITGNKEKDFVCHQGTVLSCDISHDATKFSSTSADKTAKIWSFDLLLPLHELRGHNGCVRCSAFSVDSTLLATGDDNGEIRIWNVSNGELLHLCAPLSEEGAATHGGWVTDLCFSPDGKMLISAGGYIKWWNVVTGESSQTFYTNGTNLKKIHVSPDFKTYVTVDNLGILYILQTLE

[10] = target: Glucose-6-phosphate 1-dehydrogenase (Homo sapiens, UniProt P11413); test: inhibition of Homo sapiens G6PD, dose series – biochemical, fluorescence, selectivity assay for P. falciparum G6PD inhibitor project, dose response (AID 504792); format: functional
Sequence of Glucose-6-phosphate 1-dehydrogenase (P11413 whole entry): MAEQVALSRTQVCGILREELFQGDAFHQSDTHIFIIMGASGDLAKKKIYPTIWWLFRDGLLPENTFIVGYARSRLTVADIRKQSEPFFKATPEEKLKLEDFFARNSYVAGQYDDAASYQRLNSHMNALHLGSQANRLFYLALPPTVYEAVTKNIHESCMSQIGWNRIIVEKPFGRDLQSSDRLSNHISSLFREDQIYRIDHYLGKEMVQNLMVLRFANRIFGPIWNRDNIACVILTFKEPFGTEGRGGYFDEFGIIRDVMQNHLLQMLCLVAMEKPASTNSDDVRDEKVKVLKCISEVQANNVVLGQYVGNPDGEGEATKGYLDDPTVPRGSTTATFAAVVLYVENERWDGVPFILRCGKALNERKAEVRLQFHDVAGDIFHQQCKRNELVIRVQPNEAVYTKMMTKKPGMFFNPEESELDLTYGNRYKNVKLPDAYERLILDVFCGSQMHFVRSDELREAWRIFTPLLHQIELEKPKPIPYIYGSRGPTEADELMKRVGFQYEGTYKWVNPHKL

[11] = target: T7, Ubiquitin-conjugating enzyme E2 N (Homo sapiens, UniProt P61088); format: functional;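 further: Dose-response confirmation in a TR-FRET assay detecting UBC13-driven polyubiquitin chain formation, inhibition measured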
T7 sequence (P61088 whole entry): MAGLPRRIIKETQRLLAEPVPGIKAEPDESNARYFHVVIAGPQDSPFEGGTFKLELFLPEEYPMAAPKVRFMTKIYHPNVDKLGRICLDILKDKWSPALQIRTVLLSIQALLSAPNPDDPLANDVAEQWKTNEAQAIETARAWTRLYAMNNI

[12] = target: DNA dC->dU-editing enzyme APOBEC-3G (Homo sapiens, UniProt Q9HC16); test: Dose Response confirmation of small molecule APOBEC3G DNA Deaminase Inhibitors via a fluorescence-based single-stranded DNA deaminase assay. [Related pubchem assays (depositor defined):AID493012, AID493028]; format: functional
Sequence of DNA dC->dU-editing enzyme APOBEC-3G (Q9HC16 whole entry): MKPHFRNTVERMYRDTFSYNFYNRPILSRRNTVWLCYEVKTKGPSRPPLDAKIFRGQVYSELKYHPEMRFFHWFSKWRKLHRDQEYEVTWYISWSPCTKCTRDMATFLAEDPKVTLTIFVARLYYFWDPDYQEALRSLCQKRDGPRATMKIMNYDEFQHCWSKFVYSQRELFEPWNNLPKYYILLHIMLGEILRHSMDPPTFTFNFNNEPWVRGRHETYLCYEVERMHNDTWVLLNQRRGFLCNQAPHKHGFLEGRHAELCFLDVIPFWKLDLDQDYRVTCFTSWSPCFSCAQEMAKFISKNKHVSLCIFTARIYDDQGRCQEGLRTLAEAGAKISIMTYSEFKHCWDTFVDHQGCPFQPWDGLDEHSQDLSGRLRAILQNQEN

[13] = tested on: Streptococcus sp. 'group A'; test: Streptococcus pyogenes SK(-)GAS viability under kanamycin – luminescence, BacTiterGlo, confirmation, counter-screen for streptokinase expression inhibitor project, dose response (AID 1900); format: functional, organism-based
[14] = target: DNA dC->dU-editing enzyme APOBEC-3A (Homo sapiens, UniProt P31941); test: A3A deaminase inhibition for selectivity – biochemical, dose response (AID 504722); format: functional
Sequence of DNA dC->dU-editing enzyme APOBEC-3A (P31941 whole entry): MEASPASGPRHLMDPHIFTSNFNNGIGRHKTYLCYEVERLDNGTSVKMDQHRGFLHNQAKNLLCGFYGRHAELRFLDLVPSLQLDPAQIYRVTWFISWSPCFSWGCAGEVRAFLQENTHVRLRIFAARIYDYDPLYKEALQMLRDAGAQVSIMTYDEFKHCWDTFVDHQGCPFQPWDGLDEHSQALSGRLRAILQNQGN

[15] = target: T8, Streptokinase A (Streptococcus pyogenes serotype M1, UniProt P10520); test: viability-normalized secreted streptokinase activity reduction – plasminogen activation absorbance, OD405, dose response (AID 1914); format: functional, Streptococcus pyogenes M1 GAS;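 further: secreted streptokinase activity via plasminogen activation per viability signal from cell pellet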
T8 sequence (P10520 whole entry): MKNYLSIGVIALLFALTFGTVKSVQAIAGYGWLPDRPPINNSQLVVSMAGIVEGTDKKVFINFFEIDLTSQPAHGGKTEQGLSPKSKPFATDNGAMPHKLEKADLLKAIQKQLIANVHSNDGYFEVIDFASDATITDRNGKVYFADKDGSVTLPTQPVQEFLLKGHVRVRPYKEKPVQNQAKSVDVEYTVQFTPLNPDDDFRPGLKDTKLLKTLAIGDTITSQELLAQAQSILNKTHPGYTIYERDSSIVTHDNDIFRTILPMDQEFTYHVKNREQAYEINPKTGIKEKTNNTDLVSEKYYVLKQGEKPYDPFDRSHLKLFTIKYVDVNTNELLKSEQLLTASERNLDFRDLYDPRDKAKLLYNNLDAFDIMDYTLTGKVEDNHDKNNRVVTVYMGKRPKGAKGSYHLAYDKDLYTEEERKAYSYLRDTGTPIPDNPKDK

[16] = tested on: Streptococcus; test: GAS UMAA2166 growth inhibition – luminescence, BacTiterGlo, counter-screen for streptokinase expression inhibitor project, dose response (AID 1915); format: functional, organism-based;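 further: potency for reduction of bacterial viability or growth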
[17] = target: Eukaryotic translation initiation factor 4E (Mus musculus, UniProt P63073); test: blockers of eIF4G binding by eIF4E – biochemical, TR-FRET, dose response (AID 855); format: functional;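 further: potency for disrupting eIF4E binding to eIF4GI seen as loss of FRET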
Sequence of Eukaryotic translation initiation factor 4E (P63073 whole entry): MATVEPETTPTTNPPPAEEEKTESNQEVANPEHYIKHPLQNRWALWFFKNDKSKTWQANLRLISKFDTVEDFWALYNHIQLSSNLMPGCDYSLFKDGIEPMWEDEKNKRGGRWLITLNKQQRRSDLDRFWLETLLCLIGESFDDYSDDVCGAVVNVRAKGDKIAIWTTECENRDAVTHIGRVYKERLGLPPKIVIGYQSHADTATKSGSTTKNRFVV

O=S(=O)(Nc1ccc2ccccc2c1)c1cc(Cl)ccc1F
IC50 [1]: > 10 µM (inactive)
IC50 [2]: > 10 µM (inconclusive)

C[C@@H](C(=O)Nc1nc(-c2ccccn2)cs1)N1C(=O)C2CCCCC2C1=O (some centres not stated)
IC50 [3]: 8.38 µM (active)
IC50 [4]: 8.43 µM (active)
IC50 [5]: 96 µM (inactive)

Cc1ccccc1N1C(=O)c2sc3nc4c(c(=O)n3c2C1=O)CCC4
IC50 [5]: 54.9 µM (inactive)

C=CCN1C=C2C(=O)C(C)(OC(=O)CCC(=O)OC)C(=O)C(Br)=C2C=C1c1ccc(OC)cc1 (configuration not stated)
IC50 [6]: 24.6 µM (inactive)
EC50 [7]: 50.2 µM (active)
EC50 [8]: 42.8 µM (active)
IC50 [9]: 32.6 µM (active)
IC50 [10]: 29.9 µM (inactive)

CC(C)CC(C(=O)NC(C)(C)C)N(Cc1cccs1)C(=O)c1snc(C(N)=O)c1N (configuration not stated)
IC50 [11]: > 20 µM (inactive)

NC(=S)N=Nc1c(O)n(Cc2ccc(F)cc2)c2ccccc12
IC50 [11]: > 20 µM (inactive)

COC(=O)c1ccc(CSc2nnc(S)s2)o1
IC50 [12]: 5.99 µM (active)
EC50 [13]: 5.69 µM (active)
IC50 [14]: > 100 µM (inactive)
EC50 [15]: 5.61 µM (active)
EC50 [16]: 9.6 µM (active)
IC50 [17]: > 64 µM (inactive)

CC(C)CNC(=O)c1cc(-c2cc(F)c(Cl)cc2Cl)n[nH]1
IC50 [1]: 0.27 µM (active)
IC50 [2]: > 10 µM (inconclusive)

CC(C)Cn1c(S)nnc1-c1cccc(S(=O)(=O)N2CCOCC2)c1
IC50 [12]: 5.37 µM (active)
IC50 [14]: > 100 µM (inactive)

Sc1nnc(-c2ccccn2)n1/N=C/c1c(Cl)cccc1Cl
IC50 [12]: 4.67 µM (active)
IC50 [14]: > 100 µM (inactive)

COc1ccc(OC)c(CNc2cnc3ccccc3c2)c1
IC50 [1]: > 100 µM (inactive)
IC50 [2]: > 100 µM (not active)

Reference: ChEMBL document CHEMBL1201862, “PubChem BioAssay data set” (2004)
